Where a chain is given by its changes, count along the chain named. Read-outs that look alike come from different tables or passages of the source.
Assays:
COX-2 [1] = target: T1, COX-2 (Homo sapiens, UniProt P35354); test: TLC assay of cyclooxygenase inhibition, purified human COX-2; type: biochemical
T1 sequence (P35354 18-604): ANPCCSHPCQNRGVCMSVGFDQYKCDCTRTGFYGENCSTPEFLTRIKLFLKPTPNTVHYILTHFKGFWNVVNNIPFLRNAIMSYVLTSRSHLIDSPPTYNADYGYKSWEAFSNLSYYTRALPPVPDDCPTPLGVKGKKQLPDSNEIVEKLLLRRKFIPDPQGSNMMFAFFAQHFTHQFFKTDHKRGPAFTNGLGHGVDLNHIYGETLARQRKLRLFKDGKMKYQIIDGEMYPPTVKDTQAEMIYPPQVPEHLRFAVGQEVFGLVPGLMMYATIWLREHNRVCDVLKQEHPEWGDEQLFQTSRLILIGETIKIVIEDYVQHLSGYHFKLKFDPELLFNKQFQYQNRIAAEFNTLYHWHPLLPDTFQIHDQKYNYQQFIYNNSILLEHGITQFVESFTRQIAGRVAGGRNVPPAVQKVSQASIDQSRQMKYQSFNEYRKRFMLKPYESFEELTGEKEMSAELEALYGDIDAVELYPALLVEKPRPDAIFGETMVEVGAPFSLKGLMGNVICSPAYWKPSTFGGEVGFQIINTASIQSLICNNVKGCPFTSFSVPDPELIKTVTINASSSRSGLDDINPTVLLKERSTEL

rat foot pad edema = test: Rat foot pad edema model (carrageenan); type: in vivo, male Sprague-Dawley rats; conditions: 2 mg/kg orally, corrected for 0.1 mL injection volume
Method: Rats were injected with carrageenan, which triggers a rapid edema (swelling) within 3 hours that can be quantitatively measured by volume displacement.
In these experiments, the carrageenan that was injected was in 0.1 mL of aqueous saline so that 0.1 mL volume increase was due to the injection alone. […] More specifically, male Sprague-Dawley rats (150 g) received a subplantar injection of carrageenan (0.1 mL of a 1% suspension of carrageenan in sterile aqueous saline) into the right hind footpad while mildly anesthetized with methoxyflurane. […] The ipsilateral footpad volume (mL) was measured with a water displacement plethysmometer at time = 3 hours post-injection and compared to the time = 0 pre-injection paw volume for edema calculations.

[2] = target: T2, murine COX-2 mutant Tyr341Ala (Mus musculus, UniProt Q05769, Y341A)
T2 sequence (Q05769 18-604 Y341A): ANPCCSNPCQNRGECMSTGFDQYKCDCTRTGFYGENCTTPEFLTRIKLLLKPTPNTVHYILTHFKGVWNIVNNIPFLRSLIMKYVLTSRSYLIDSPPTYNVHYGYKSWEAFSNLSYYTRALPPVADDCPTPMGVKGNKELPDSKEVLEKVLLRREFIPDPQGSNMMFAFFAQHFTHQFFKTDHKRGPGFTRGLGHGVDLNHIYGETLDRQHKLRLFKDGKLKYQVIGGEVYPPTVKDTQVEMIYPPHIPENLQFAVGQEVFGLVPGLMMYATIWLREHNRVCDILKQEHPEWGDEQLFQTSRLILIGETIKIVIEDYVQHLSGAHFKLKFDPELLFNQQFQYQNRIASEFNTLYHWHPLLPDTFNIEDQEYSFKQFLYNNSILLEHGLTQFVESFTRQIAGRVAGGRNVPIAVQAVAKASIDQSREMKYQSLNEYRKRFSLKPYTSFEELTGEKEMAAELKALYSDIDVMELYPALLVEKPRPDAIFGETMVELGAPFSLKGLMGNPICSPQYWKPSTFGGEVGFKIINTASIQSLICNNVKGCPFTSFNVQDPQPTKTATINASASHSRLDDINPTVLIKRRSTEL

[3] = target: T3, Val509lleArg499HisVal420lle mutant (VRV mutant) (Mus musculus, UniProt Q05769, R499H/V420I/V509I)
T3 sequence (Q05769 18-604 V420I/R499H/V509I): T2 sequence (Q05769 18-604 Y341A) with A324Y, V403I, R482H, V492I

ovine COX-1 = target: T4, ovine COX-1 (Ovis aries, UniProt P05979); test: TLC assay of cyclooxygenase inhibition, purified ovine COX-1; type: biochemical; conditions: Table 2, amide derivatives; ovine COX-1 (44 nM), 20 min, 1-14C-AA at 37°C for 30 sec
T4 construct: COX-1 was purified from ram seminal vesicles obtained from Oxford Biomedical Research, Inc; tissue Oxford Biomedical Research, Inc. (Oxford, Michigan); host or cells: ram seminal vesicles
T4 sequence (P05979 25-600): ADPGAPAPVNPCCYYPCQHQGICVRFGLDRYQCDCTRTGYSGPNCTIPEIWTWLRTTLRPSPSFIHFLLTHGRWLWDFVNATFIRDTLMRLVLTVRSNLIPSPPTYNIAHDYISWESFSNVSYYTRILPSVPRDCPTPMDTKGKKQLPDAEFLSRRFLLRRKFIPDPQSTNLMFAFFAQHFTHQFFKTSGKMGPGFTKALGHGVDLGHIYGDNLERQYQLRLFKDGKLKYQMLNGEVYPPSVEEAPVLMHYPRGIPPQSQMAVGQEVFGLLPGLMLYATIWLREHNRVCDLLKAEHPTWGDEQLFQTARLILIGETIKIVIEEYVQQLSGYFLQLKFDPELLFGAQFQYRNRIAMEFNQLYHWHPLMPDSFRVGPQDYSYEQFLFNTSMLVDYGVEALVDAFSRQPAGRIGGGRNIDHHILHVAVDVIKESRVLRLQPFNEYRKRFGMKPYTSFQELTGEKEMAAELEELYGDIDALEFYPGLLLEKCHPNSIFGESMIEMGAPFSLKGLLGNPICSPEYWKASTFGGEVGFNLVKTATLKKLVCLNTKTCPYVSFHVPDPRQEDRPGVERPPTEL

COX-1 = COX-1 (Homo sapiens, UniProt P23219); conditions: background / literature statement; cited from earlier work
Sequence of COX-1 (P23219 24-599): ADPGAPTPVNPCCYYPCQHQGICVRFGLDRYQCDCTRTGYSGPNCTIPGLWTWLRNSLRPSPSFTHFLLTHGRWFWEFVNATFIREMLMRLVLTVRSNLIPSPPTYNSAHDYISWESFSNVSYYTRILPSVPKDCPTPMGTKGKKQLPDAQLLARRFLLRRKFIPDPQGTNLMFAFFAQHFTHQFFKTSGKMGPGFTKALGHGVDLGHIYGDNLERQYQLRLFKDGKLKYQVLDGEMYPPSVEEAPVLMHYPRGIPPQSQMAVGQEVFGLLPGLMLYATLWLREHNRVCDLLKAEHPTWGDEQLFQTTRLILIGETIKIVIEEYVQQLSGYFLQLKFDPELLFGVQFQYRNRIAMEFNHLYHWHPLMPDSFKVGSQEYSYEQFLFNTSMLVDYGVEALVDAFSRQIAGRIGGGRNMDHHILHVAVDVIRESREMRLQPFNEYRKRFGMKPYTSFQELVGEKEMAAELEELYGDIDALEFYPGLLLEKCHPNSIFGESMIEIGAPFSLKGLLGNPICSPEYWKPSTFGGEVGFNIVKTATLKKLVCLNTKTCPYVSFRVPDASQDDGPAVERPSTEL

COX-2 [4] = target: T1, COX-2; conditions: background / literature statement; cited from earlier work

Question: Which Selectivity (COX-2 [1]; Table 1, ester derivatives, Ratio of IC50 (COX-1):IC50 (COX-2)) does the source give for `Cc1nc(-c2ccccc2)c(-c2ccc(S(N)(=O)=O)cc2)o1` [2-methyl-4-phenyl-5-sulfonamidophenyl oxazole, reference compound] here?
Answer: The Selectivity was > 1100.

Question: For `COc1ccc2c(c1)c(CC(=O)O)c(C)n2C(=O)c1ccc(Cl)cc1` [Compound 1, Indomethacin], which reduction in inflammation (rat foot pad edema) is on record?
Answer: The reduction in inflammation was “comparable reduction in inflammation”.

Question: With `COc1ccc2c(c1)c(CC(=O)OCCC1CCCCC1)c(C)n2C(=O)c1ccc(Cl)cc1` [Compound 10, Indomethacin cyclohexylethyl ester] as the molecule, how does the “IC value at which measurement of COX-2 inhibition was stopped” value (COX-2 [1]; tertiary amides) read?
Answer: The value was 33.

Question: Which “inhibition of Tyr341Ala mutant” value [2] does the source give for `COc1ccc2c(c1)c(CC(=O)NCCc1ccccc1)c(C)n2C(=O)c1ccc(Cl)cc1` [Compound 38, Indomethacin-N-(2-phenethyl) amide] here?
Answer: Its value is “resistant to inhibition”.

Question: And the “inhibition of triple mutant VRV” value [3]?
Answer: The value was “resistant to inhibition”.

Question: With `COc1ccc2c(c1)c(CC(=O)Nc1ccc(F)cc1)c(C)n2C(=O)c1ccc(Cl)cc1` [Compound 39, Indomethacin-N-(4-fluorophenyl) amide] as the molecule, how does the IC50 (ovine COX-1) read?
Answer: Its IC50 is > 66 µM.

Question: Which IC50 (ovine COX-1) does the source give for `COc1ccc2c(c1)c(CC(=O)Nc1cccnc1)c(C)n2C(=O)c1ccc(Cl)cc1` [Compound 47, Indomethacin-N-(3-pyridyl) amide] here?
Answer: Its IC50 is > 66 µM.

Question: Which IC50 (COX-2 [1]) does the source give for `CCn1nccc1NC(=O)Cc1c(C)n(C(=O)c2ccc(Cl)cc2)c2ccc(OC)cc12` [Compound 49, Indomethacin-N-5-((1-ethyl)pyrazolo) amide] here?
Answer: Its IC50 is 0.71 µM.

Question: What about the Selectivity (COX-2 [1]) of the same molecule?
Answer: The Selectivity was > 94.

Question: Which “inhibition of COX-1 (in words)” value (COX-1) does the source give for `CC1=C(CC(=O)O)c2cc(F)ccc2/C1=C\c1ccc(S(C)(=O)=O)cc1` [sulindac sulfone] here?
Answer: Its value is “does not inhibit”.

Question: What about the “inhibition of COX-2 (in words)” value (COX-2 [4]) of the same molecule?
Answer: Its value is “does not inhibit”.

Question: For “Indomethacin 3-pyridyl ester [Compound 24]”, which Selectivity (COX-2 [1]) is on record?
Answer: The Selectivity was 50.
